Source: patent US6297230A, “Cyanoaziridines for treating cancer” (priority 2000, dated 2001)

System: Human 8226 myeloma tumors
Test: Antitumor efficacy in SCID mice bearing human 8226 myeloma tumors (40-fold doxorubicin resistant)
Assay type: in vivo, human tumor xenograft in SCID mice
Source text: Testing for Antitumor Efficacy in Mice with Severe Combined Immunodeficiency Disease (SCID)
The SCID mouse represents an autosomal recessive mutation in an inbred strain of […] mice which renders the animals profoundly immunodeficient and able to accept tissue xenografts from rats, humans or other strains of mice. (Ware, et al., J Immunol Methods 85:353-361, 1985.) The immunologic defect results from an inability to carry out normal immunoglobulin and T-cell receptor recombination reactions during the development of T- and B-lymphocytes. This renders mice with very low levels of T- and B-cells, and low levels of antibody production which allows foreign (allogeneic or xenogeneic) tissue grafts to grow in vivo. […] (Phillips, et al., Curr Top Microbiol Immunol 152:259-263, 1989.) Compared to athymic nude mice, SCID mice accept more tumor tissue types and breed more efficiently. (Phillips, et al., Curr Top Microbiol Immunol 152:259-263, 1989.) The SCID mice are also more sensitive to ionizing radiation (Budach, et al., Cancer Res 52(22):6292-6296, 1992) due to a defect in DNA double strand break repair. (Chang, et al., Cancer Res 53:1244-1248, 1993.) Because some SCID mice can spontaneously revert to a more normal phenotype, serum immunoglobulin […] (IgG) levels are routinely measured and if elevated (leaky phenotype syndrome), the mouse is excluded from further study.
The SCID mouse colony is maintained in a barrier facility with specially filtered air, autoclaved (sterilized) food and water and protective handling precautions (gloves, mask, gown) to prevent inadvertent infection. For tumor studies, human tumor cells are grown in vitro, harvested, counted and injected subcutaneously into the front flank area. Tumor cell innocula range from 10^6 -2×10^7 cells/mouse. Palpable tumors begin to develop after 1-3 weeks and sizes are determined by caliper measure of the widest perpendicular diameters. These dimensions are converted to mass using the formula:
wherein W=the shorter of the two dimensions and L=the longer diameter value.
Tumor growth rates are plotted as mass (g) per days after inoculation.
Drug treatments are given by intravenous (IV) or intraperitoneal (IP) injection beginning 24 hours after tumor implantation (day 1). […] Drug therapy began 1 day later with AMP-404 dissolved in a water-miscible co-solvent system containing (per mL): benzyl alcohol 30 mg; polysorbate 80 mw, 80 mg; polyethylene glycol 300 mw, 650 mg; and q.s. to 1.0 mL in absolute ethanol. The daily dose was either 50 mg/kg or 100 mg/kg. […]

N#CC1CN1C(=O)Nc1ccccc1 (stereo not shown) [AMP 404, 2-Cyanoaziridine-1-(N-phenyl)carboxamide]
Antitumor effect (50 mg/kg daily): not active
Mean (SD) tumor volume (50 mg/kg daily, Week 3): 104.2 (78.6) mm^3
Mean (SD) tumor volume (50 mg/kg daily, Week 4): 247.9 (225.9) mm^3
Mean (SD) tumor volume (50 mg/kg daily, Week 5): 574.2 (296.2) mm^3
Mean (SD) tumor volume (50 mg/kg daily, Week 6): 1,020 (396.2) mm^3
Mean (SD) tumor volume (50 mg/kg daily, Week 7): 1,858.4 (941.4) mm^3
Mean reduction in tumor volume (100 mg/kg): 50%
Mean (SD) tumor volume (100 mg/kg daily, Week 3, P-value .005 vs control): 32.9 (17.9) mm^3
Mean (SD) tumor volume (100 mg/kg daily, Week 4, P-value .068 vs control): 104.9 (81.8) mm^3
Mean (SD) tumor volume (100 mg/kg daily, Week 5, P-value .229 vs control): 312.5 (195.5) mm^3
Mean (SD) tumor volume (100 mg/kg daily, Week 6, P-value .100 vs control): 357.3 (314.5) mm^3
Mean (SD) tumor volume (100 mg/kg daily, Week 7, P-value 0.19 vs control): 824.5 (793.7) mm^3
Tumor size at end of 6 week experiment (100 mg/kg, control approximately 1,000 mm^3): approximately 300 mm^3
Onset of developing palpable tumors (after inoculation): 3 weeks
Tumor take rate (% of inoculated mice developing palpable tumors) (all 3 groups): 100%
Antitumor activity in vivo (multidrug-resistant human myeloma, SCID mice): active against multidrug-resistant human myeloma cells in vivo
